From paper PMC11992225, “Antibacterial compounds against non-growing and intracellular bacteria” (npj Antimicrobials and Resistance, 2025)
pEC50: −log10 of the molar value. In brackets after ≈: the same amount, converted by molar mass. Read-outs that look alike come from different tables or passages of the source.

Tests used:
[1] = system: S. aureus DSM2569; assay: MIC, standard microdilution assay, growing S. aureus; type: cell-based, Staphylococcus aureus; details: Staphylococcus aureus
How it was run: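 Medium: CA-MHB + 40 mM HEPES, pH 7.4 (UPEC, P. aeruginosa, S. aureus); LPM + 30 mM MES, pH 5.5 (UPEC, extra condition); TSB (S. flexneri). Microdilution format, n = 3.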

[2] = system: non-growing UPEC CFT073; assay: Dose-dependent killing analysis (CFU spot-plating) of stationary-phase UPEC; type: cell-based, Escherichia coli
Description: To differentiate between these scenarios, we used CFU counting by agar plating to assess the bactericidal effect on non-growing bacteria. […] Conversely, if no significant reduction in CFU is observed, the regrowth delay is due to PAE without killing. […] Fluoroquinolones are known to cause PAE after treatment of growing bacterial cultures.
(§1) For survival analysis, bacteria were cultivated as described for the dose–response dilution-regrowth assay. Assays with UPEC were conducted at the CBCS screening facility using 96-well plates with a 200 μl sample volume, and compounds were dispensed using the Echo® (Labcyte) system. P. aeruginosa and S. aureus samples were treated according to the protocol used for the dilution-regrowth experiments. Treated samples were serially diluted 10-fold in PBS, and 10 μl drops were spot-plated onto rectangular LB agar plates using either a Beckman NXP robot (for UPEC) or an Integra VIAFLO96 electronic pipette (for P. aeruginosa and S. aureus). The LB agar plates were incubated overnight at 37 °C and scanned. Colonies were counted at the spots of the lowest dilution where individual colonies could be accurately distinguished. Each colony was manually marked on a separate image layer using the GNU Image Manipulation Program, and counted using NIST’s Integrated Colony Enumerator (NICE 1.4) software. The experiments were performed in three biological replicates.

[3] = system: non-growing UPEC CFT073; assay: Dilution-regrowth assay (screen, hit validation, dose-response) on stationary-phase UPEC; type: cell-based, Escherichia coli; details: for OD600 at 6hr, Mean: after dilution into drug-free medium; for pEC50: Escherichia coli
How it was run: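 Regrowth (OD600 after 6 h, 37 °C) of diluted non-growing CFT073, following 24 h compound treatment of 24 h stationary cultures, defines activity relative to untreated control. Screen at 20 µM, validation at 20, 10, 5 µM (duplicates), dose–response in three biological replicates fitted by five-parameter logistic.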

[4] = system: non-growing P. aeruginosa DSM1117; assay: Dose-dependent killing analysis (CFU spot-plating) of stationary-phase P. aeruginosa; type: cell-based, Pseudomonas aeruginosa; details: for reduction of bacterial counts, non-growing P. aeruginosa: at 2.5 µM, 1:4 CA-MHB pH 7.4, 24 h treatment
Description: The cultures were grown and treated for 24 h in 1:4 CA-MHB (pH 7.4).
as §1

[5] = E. coli in 1:4 CA-MHB (pH 7.4), 0.25 μM
[6] = E. coli in 1:4 CA-MHB (pH 7.4), 0.5 μM
[7] = E. coli in 1:4 CA-MHB (pH 7.4), 1 μM
[8] = E. coli in 1:4 CA-MHB (pH 7.4), 2.5 μM
[9] = E. coli in 1:4 CA-MHB (pH 7.4), 5 μM
[10] = E. coli in 1:4 CA-MHB (pH 7.4), 10 μM
[11] = E. coli in LPM (pH 5.5), 0.25 μM
[12] = E. coli in LPM (pH 5.5), 0.5 μM
[13] = E. coli in LPM (pH 5.5), 2.5 μM
[14] = DSM2569, S. aureus, CA-MHB pH 7.4, read-out: MIC (μM) CA-MHB
[15] = E. coli, pH 7.4, regrowth delay of non-growing bacteria, 1:4 CA-MHB, 24 h treatment, OD600 6 h after 2500-fold dilution, read-out: EC50

CS[C@H]1SC[C@H]2C(=O)N(C)[C@@H](C(C)C)C(=O)OC[C@@H](NC(=O)c3cnc4ccccc4n3)C(=O)N[C@@H](C)C(=O)N(C)[C@@H]1C(=O)N(C)[C@@H](C(C)C)C(=O)OC[C@@H](NC(=O)c1cnc3ccccc3n1)C(=O)N[C@@H](C)C(=O)N2C [Echinomycin]
MIC ([1]; DSM2569, pH 7.4, read-out: MIC (μM) CA-MHB): 2 µM (≈ 2.2 µg/mL) | Log10(CFU/ml), Replicate #1 [2, 5]: 9.431 Log10(CFU/ml) | Log10(CFU/ml), Replicate #2 [2, 5]: 8.699 Log10(CFU/ml) | Log10(CFU/ml), Replicate #3 [2, 5]: 8.505 Log10(CFU/ml) | Δlog10(CFU/ml) ([2]; E. coli in 1:4 CA-MHB (pH 7.4), 0.25 μM, average killing vs before treatment (8.977)): 0.099 log10(CFU/ml) | Log10(CFU/ml), Replicate #1 [2, 6]: 9.415 Log10(CFU/ml) | Log10(CFU/ml), Replicate #2 [2, 6]: 9.079 Log10(CFU/ml) | Log10(CFU/ml), Replicate #3 [2, 6]: 8.447 Log10(CFU/ml) | Δlog10(CFU/ml) ([2]; E. coli in 1:4 CA-MHB (pH 7.4), 0.5 μM, average killing vs before treatment (8.977)): -0.003 log10(CFU/ml) | Log10(CFU/ml), Replicate #1 [2, 7]: 9.380 Log10(CFU/ml) | Log10(CFU/ml), Replicate #2 [2, 7]: 9.114 Log10(CFU/ml) | Log10(CFU/ml), Replicate #3 [2, 7]: 8.398 Log10(CFU/ml) | Δlog10(CFU/ml) ([2]; E. coli in 1:4 CA-MHB (pH 7.4), 1 μM, average killing vs before treatment (8.977)): 0.013 log10(CFU/ml) | Log10(CFU/ml), Replicate #1 [2, 8]: 9.398 Log10(CFU/ml) | Log10(CFU/ml), Replicate #2 [2, 8]: 8.699 Log10(CFU/ml) | Log10(CFU/ml), Replicate #3 [2, 8]: 8.398 Log10(CFU/ml) | Δlog10(CFU/ml) ([2]; E. coli in 1:4 CA-MHB (pH 7.4), 2.5 μM, average killing vs before treatment (8.977)): 0.146 log10(CFU/ml) | Log10(CFU/ml), Replicate #1 [2, 9]: 9.362 Log10(CFU/ml) | Log10(CFU/ml), Replicate #2 [2, 9]: 8.477 Log10(CFU/ml) | Log10(CFU/ml), Replicate #3 [2, 9]: 8.477 Log10(CFU/ml) | Δlog10(CFU/ml) ([2]; E. coli in 1:4 CA-MHB (pH 7.4), 5 μM, average killing vs before treatment (8.977)): 0.205 log10(CFU/ml) | Log10(CFU/ml), Replicate #1 [2, 10]: 8.342 Log10(CFU/ml) | Log10(CFU/ml), Replicate #2 [2, 10]: 8.079 Log10(CFU/ml) | Log10(CFU/ml), Replicate #3 [2, 10]: 8.342 Log10(CFU/ml) | Δlog10(CFU/ml) ([2]; E. coli in 1:4 CA-MHB (pH 7.4), 10 μM, average killing vs before treatment (8.977)): 0.723 log10(CFU/ml) | Log10(CFU/ml), Replicate #1 [2, 11]: 6.778 Log10(CFU/ml) | Log10(CFU/ml), Replicate #2 [2, 11]: 7.114 Log10(CFU/ml) | Log10(CFU/ml), Replicate #3 [2, 11]: 8.398 Log10(CFU/ml) | Δlog10(CFU/ml) ([2]; E. coli in LPM (pH 5.5), 0.25 μM, average killing vs before treatment (7.350)): -0.080 log10(CFU/ml) | Log10(CFU/ml), Replicate #1 [2, 12]: 6.954 Log10(CFU/ml) | Log10(CFU/ml), Replicate #2 [2, 12]: 6.954 Log10(CFU/ml) | Log10(CFU/ml), Replicate #3 [2, 12]: 8.000 Log10(CFU/ml) | Δlog10(CFU/ml) ([2]; E. coli in LPM (pH 5.5), 0.5 μM, average killing vs before treatment (7.350)): 0.048 log10(CFU/ml) | Log10(CFU/ml), Replicate #1 ([2]; E. coli in LPM (pH 5.5), 1 μM): 6.954 Log10(CFU/ml) | Log10(CFU/ml), Replicate #2 ([2]; E. coli in LPM (pH 5.5), 1 μM): 7.255 Log10(CFU/ml) | Log10(CFU/ml), Replicate #3 ([2]; E. coli in LPM (pH 5.5), 1 μM): 8.301 Log10(CFU/ml) | Δlog10(CFU/ml) ([2]; E. coli in LPM (pH 5.5), 1 μM, average killing vs before treatment (7.350)): -0.153 log10(CFU/ml) | Log10(CFU/ml), Replicate #1 [2, 13]: 6.954 Log10(CFU/ml) | Log10(CFU/ml), Replicate #2 [2, 13]: 6.845 Log10(CFU/ml) | Log10(CFU/ml), Replicate #3 [2, 13]: 8.230 Log10(CFU/ml) | Δlog10(CFU/ml) ([2]; E. coli in LPM (pH 5.5), 2.5 μM, average killing vs before treatment (7.350)): 0.007 log10(CFU/ml) | Log10(CFU/ml), Replicate #1 ([2]; E. coli in LPM (pH 5.5), 5 μM): 6.778 Log10(CFU/ml) | Log10(CFU/ml), Replicate #2 ([2]; E. coli in LPM (pH 5.5), 5 μM): 7.342 Log10(CFU/ml) | Log10(CFU/ml), Replicate #3 ([2]; E. coli in LPM (pH 5.5), 5 μM): 8.204 Log10(CFU/ml) | Δlog10(CFU/ml) ([2]; E. coli in LPM (pH 5.5), 5 μM, average killing vs before treatment (7.350)): -0.091 log10(CFU/ml) | Log10(CFU/ml), Replicate #1 ([2]; E. coli in LPM (pH 5.5), 10 μM): 6.279 Log10(CFU/ml) | Log10(CFU/ml), Replicate #2 ([2]; E. coli in LPM (pH 5.5), 10 μM): 6.362 Log10(CFU/ml) | Log10(CFU/ml), Replicate #3 ([2]; E. coli in LPM (pH 5.5), 10 μM): 6.602 Log10(CFU/ml) | Δlog10(CFU/ml) ([2]; E. coli in LPM (pH 5.5), 10 μM, average killing vs before treatment (7.350)): 0.936 log10(CFU/ml) | OD600 at 6hr, Mean [3, 5]: 0.627 | OD600 at 6hr, Mean [3, 6]: 0.601 | OD600 at 6hr, Mean [3, 7]: 0.561 | OD600 at 6hr, Mean [3, 8]: 0.340 | OD600 at 6hr, Mean [3, 9]: 0.110 | OD600 at 6hr, Mean [3, 10]: 0.090 | OD600 at 6hr, Mean ([3]; E. coli in 1:4 CA-MHB (pH 7.4), 30 μM): 0.091 | OD600 at 6hr, Mean [3, 11]: 0.602 | OD600 at 6hr, Mean [3, 12]: 0.564 | OD600 at 6hr, Mean ([3]; E. coli in LPM (pH 5.5), 1 μM): 0.465 | OD600 at 6hr, Mean [3, 13]: 0.288 | OD600 at 6hr, Mean ([3]; E. coli in LPM (pH 5.5), 5 μM): 0.215 | OD600 at 6hr, Mean ([3]; E. coli in LPM (pH 5.5), 10 μM): 0.181 | OD600 at 6hr, Mean ([3]; E. coli in LPM (pH 5.5), 30 μM): 0.160 | pEC50 ([3]; pH 5.5): 5.82 | pEC50 ([3]; pH 5.5, read-out: EC50 (regrowth inhibition curve, Fig. S4)): 5.82 | pEC50 ([3]; pH 7.4): 5.62 | pEC50 ([3]; pH 7.4, read-out: EC50 (regrowth inhibition curve, Fig. S4)): 5.62

CC1Sc2c(C(=O)O)c(=O)c3cc(F)c(N4CCNCC4)cc3n21 (stereo not shown) [Ulifloxacin]
MIC [1, 14]: 1 µM (≈ 0.349 µg/mL) | reduction of bacterial counts, stationary phase P. aeruginosa ([4]; at 0.5 µM, 24 h treatment): more than four | reduction of bacterial counts, non-growing P. aeruginosa [4]: more than four | pEC50 ([3]; E. coli, LPM pH 5.5, regrowth delay of non-growing bacteria, 24 h treatment, OD600 6 h after 2500-fold dilution, read-out: EC50): 5.06 | pEC50 [3, 15]: 6.34

O=C(O)c1cn(C2CC2)c2cc(N3CCNCC3)c(F)cc2c1=O [Ciprofloxacin]
MIC [1, 14]: 2 µM (≈ 0.663 µg/mL) | reduction of bacterial counts, non-growing P. aeruginosa [4]: more than four | pEC50 [3, 15]: 5.86

C=C[C@]1(C)C[C@@H](OC(=O)CSC(C)(C)CNC(=O)[C@H](N)C(C)C)[C@]2(C)[C@H](C)CC[C@]3(CCC(=O)[C@H]32)[C@@H](C)[C@@H]1O [Valnemulin]
MIC [1, 14]: 0.125 µM (≈ 0.0706 µg/mL) | bactericidal activity against non-growing UPEC (CFU counting) ([2]; 24 h treatment of stationary phase culture): not bactericidal | pEC50 [3, 15]: 6.43 | activity against non-growing UPEC in LPM (pH 5.5) compared to 1:4 CA-MHB (pH 7.4) ([3]; regrowth delay and killing, Figs. 2 and 3): active at pH 7.4 and completely inactive in the acidic medium
